Like-named read-outs stand apart in the source and are kept apart here.
Test: Lapatinib pharmacokinetics and uptake in rat brain tissue (BT);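 as to BT corr (BT homogenate corrected), single rat: brain concentration corrected for residual brain blood by the Fridén method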;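 as to BT corr (BT homogenate), single rat: brain concentration corrected for residual brain blood by the Fridén method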
Assay type: in vivo, rats
Settings: male, Wistar, rat; for AUC(0-inf) / AUC(0-t) / Cmax / Tmax / k el: brain tissue
Experimental: This study was conducted on rats, which are a promising model to predict P-gp-based drug-drug interactions at the human BBB [15]. The animals were allowed to acclimate for one week before the beginning of the experiments. Adult male Wistar-strain rats (weight 470–525 g) were used in the study. The animals were maintained under standard breeding conditions with a 12/12 h light-dark cycle (lights on at 6.00 a.m., lights off at 6.00 p.m.) at constant room temperature (23 ± 2 °C), relative humidity (55 ± 10%) and ad libitum access to food and water. The experimental protocol for this study was reviewed and approved by the Local Ethics Committee. To obtain consistent data, the study was based on the required minimum number of animals and observation time. […] Three rats were used at each time point (n = 3). In total, the research was conducted on 66 animals (n = 33 in the experimental group and n = 33 in the control group).
Elacridar was freshly dissolved in a vehicle at an initial concentration of 20 mg/mL. […] A volume of 80 μL of blood was collected from each rat by cutting off a piece of its tail. The blood samples were collected into heparinized test tubes at the following time points: […], and they were immediately centrifuged at 2880 g for 10 min at 4 °C. The anaesthetized rats (anaesthetized by intramuscular administration of 50 mg/kg ketamine and 10 mg/kg xylazine) were prepared for cisterna magna puncture. The hair over the puncture was removed and the skin was disinfected with alcohol. The animals were placed in a recumbent position with an elevated rear part of the body. The animals’ heads were slightly flexed and immobilized with the operator’s left hand. The space between the occiput rostrally and the atlas (C1) of the spinal column caudally was gently palpated with the left thumb. A 0.7 × 20 G needle with polyethylene tubing (Terumo Poland, Warsaw, Poland) was gently inserted at an approximate angle of 80–90° through the skin with the operator’s right hand into the midsagittal region. The moment that dura mater perforation was perceptible, a small amount of CSF was found in the needle tubing. To sample additional CSF, a 1 mL insulin syringe (Becton Dickinson, Warsaw, Poland) was used to collect 80–120 μL of CSF by very gentle aspiration. Only clear CSF was collected for further analysis. […] The animals’ brains were immediately dissected, washed in 0.9% NaCl and divided along the longitudinal axis. One of the brain hemispheres was again rinsed three times with 5 mL of 0.9% NaCl, weighed and homogenized with 0.9% NaCl (4 mL per 1 g of BT) in an Ultra-Turrax homogenizer (Witko, Łódź, Poland). The homogenate was then centrifuged at 4500 g for 10 min. All samples of the rat BP, CSF, and BT homogenate supernatant were stored at −80 °C until analysis.
The chromatographic analysis was conducted using a 1260 Infinity system (Agilent Technologies, Santa Clara, USA) equipped with a Kinetex® C18 column (50 × 4.6 mm, 2.6 μm, Phenomenex, Torrance, USA), which was maintained at 35 °C. The mobile phase consisted of 0.1% formic acid (v/v) in water with 5 mM ammonium formate (solvent A) and acetonitrile with 10% phase A (v/v, solvent B). The analyte and internal standard (IS, erlotinib) were eluted using a gradient run of 10 min as follows: 95% A at 0–2 min; 95%–5% A at 2–4 min; 5% A at 4–5 min; 5%–95% A at 5–6 min; 95% A at 6–10 min. The flow rate and injection volume were set at 0.7 mL/min and 10 μL, respectively. The needle was washed for 30 s in a mixture of acetonitrile, methanol, isopropanol, water, and formic acid (50:20:15:15:0.25, v/v/v/v/v).

[1] = brain tissue homogenate, oral, lapatinib 100 mg/kg + elacridar, read-out: BT corr (BT homogenate), S
[2] = brain tissue homogenate, oral, lapatinib 100 mg/kg + elacridar, read-out: BT corr (BT homogenate), single rat
[3] = brain tissue homogenate, po, 100 mg/kg, lapatinib p.o. 100 mg/kg alone, read-out: BT corr (BT homogenate corrected), S
[4] = brain tissue homogenate, po, 100 mg/kg, lapatinib p.o. 100 mg/kg alone, read-out: BT corr (BT homogenate corrected), single rat
[5] = brain tissue homogenate, po, 100 mg/kg, lapatinib p.o. 100 mg/kg alone, read-out: Clapatinib in BT, S (medium value)
[6] = brain tissue homogenate, po, 100 mg/kg, lapatinib p.o. 100 mg/kg alone, read-out: Clapatinib in BT, single rat
[7] = brain, oral, lapatinib 100 mg/kg + elacridar, read-out: BT corr (BT homogenate), single rat
[8] = brain, oral, lapatinib 100 mg/kg + elacridar, read-out: Clapatinib in BT, S
[9] = brain, oral, lapatinib 100 mg/kg + elacridar, read-out: Clapatinib in BT, single rat
[10] = brain, po, 100 mg/kg, lapatinib 100 mg/kg oral + 5 mg/kg elacridar (IE+L)
[11] = brain, po, 100 mg/kg, lapatinib 100 mg/kg oral alone (IIL)

CS(=O)(=O)CCNCc1ccc(-c2ccc3ncnc(Nc4ccc(OCc5cccc(F)c5)c(Cl)c4)c3c2)o1 [lapatinib, N-{3-Chloro-4-[(3-fluorobenzyl)oxy]phenyl}-6-[5-({[2-(methylsulfonyl)ethyl]amino}methyl)-2-furyl]-4-quinazolinamine]
concentration at 2 h [1]: 71.3 ng/mL
concentration at 3 h [1]: 198 ng/mL
concentration at 3 h [2]: 170 ng/mL
concentration at 4 h [1]: 85 ng/mL
concentration at 4 h [2]: 91.9 ng/mL
concentration at 6 h [1]: 85.8 ng/mL
concentration at 6 h [2]: 87.3 ng/mL
concentration at 8 h [1]: 85 ng/mL
concentration at 8 h [2]: 91.5 ng/mL
concentration at 12 h [1]: 54.4 ng/mL
concentration at 12 h [2]: 63.6 ng/mL
concentration at 24 h [1]: 44.7 ng/mL
concentration at 24 h [2]: 52.7 ng/mL
concentration at 0.25 h [3]: 27.9 ng/mL
concentration at 0.25 h [4]: 22.5 ng/mL
concentration at 0.25 h [5]: 34.3 ng/mL
concentration at 0.25 h [6]: 27.7 ng/mL
concentration at 0.5 h [3]: 31.5 ng/mL
concentration at 0.5 h [4]: 24 ng/mL
concentration at 0.5 h [5]: 44.9 ng/mL
concentration at 0.5 h [6]: 36.2 ng/mL
concentration at 1 h [3]: 55.5 ng/mL
concentration at 1 h [4]: 48.1 ng/mL
concentration at 1 h [5]: 76 ng/mL
concentration at 1 h [6]: 66.5 ng/mL
concentration at 2 h [3]: 41.4 ng/mL
concentration at 2 h [4]: 30.1 ng/mL
concentration at 2 h [5]: 63.7 ng/mL
concentration at 2 h [6]: 49.8 ng/mL
concentration at 3 h [3]: 111 ng/mL
concentration at 3 h [4]: 139 ng/mL
concentration at 3 h [5]: 134 ng/mL
concentration at 3 h [6]: 115 ng/mL
concentration at 4 h [3]: 115 ng/mL
concentration at 4 h [4]: 94.2 ng/mL
concentration at 4 h [5]: 147 ng/mL
concentration at 4 h [6]: 133 ng/mL
concentration at 6 h [3]: 81.9 ng/mL
concentration at 6 h [5]: 101 ng/mL
concentration at 6 h [6]: 131 ng/mL
concentration at 8 h [3]: 66.2 ng/mL
concentration at 8 h [4]: 87.5 ng/mL
concentration at 8 h [5]: 85.5 ng/mL
concentration at 8 h [6]: 108 ng/mL
concentration at 12 h [5]: 59.6 ng/mL
concentration at 0.25 h [7]: 30.7 ng/mL
concentration at 0.25 h [8]: 40.8 ng/mL
concentration at 0.25 h [9]: 37.6 ng/mL
concentration at 0.5 h [7]: 45.2 ng/mL
concentration at 0.5 h [8]: 58.8 ng/mL
concentration at 0.5 h [9]: 62 ng/mL
concentration at 1 h [8]: 98.6 ng/mL
concentration at 1 h [9]: 95.2 ng/mL
concentration at 2 h [8]: 102 ng/mL
concentration at 3 h [8]: 221 ng/mL
concentration at 3 h [9]: 198 ng/mL
concentration at 4 h [8]: 97.6 ng/mL
concentration at 4 h [9]: 107 ng/mL
concentration at 6 h [8]: 98.7 ng/mL
concentration at 6 h [9]: 100 ng/mL
concentration at 8 h [8]: 102 ng/mL
concentration at 8 h [9]: 98.5 ng/mL
concentration at 12 h [9]: 86.5 ng/mL
concentration at 24 h [8]: 56.9 ng/mL
concentration at 24 h [9]: 65.5 ng/mL
AUC(0-inf) [10]: 2520 ± 611 ng·h/mL
AUC(0-t) [10]: 1610 ± 131 ng·h/mL
Cmax [10]: 198 ± 39 ng/mL
Tmax [10]: 3 h
k el [10]: 1.39e-05 s⁻¹
AUC(0-inf) [11]: 1350 ± 712 ng·h/mL
AUC(0-t) [11]: 836 ± 21.2 ng·h/mL
Cmax [11]: 128 ± 16.4 ng/mL
Tmax [11]: 4.5 ± 2.12 h
k el [11]: 6.94e-05 s⁻¹
concentration at 12 h (brain, po, 100 mg/kg, lapatinib p.o. 100 mg/kg alone, read-out: BT corr (BT homogenate corrected), S): 44.5 ng/mL
